Data published in patent US4228292A, “N-Substituted benzothiazolines and benzoxazolines and their use as herbicides and plant growth regulants” (Monsanto Company, priority 1978, dated 1980).

Experiments:
soybean plants = assay: plant growth regulating activity on soybean plants; type: in vivo, variety Williams
Procedure: A number of soybean plants, variety Williams, were grown from seeds in plastic pots in the greenhouse for a period of one week at which time the plants are thinned to one plant per pot. When the second trifoliate leaf (three weeks) was fully expanded, the plants were treated with a solution of the active ingredient in acetone and water. Aqueous Tween 20 was used as a surfactant.
When the fifth trifoliate leaf (four to five weeks) was fully expanded, the treated plants were compared with the non-treated control plants and the observations recorded.

Wild Buckwheat [1] = assay: pre-emergent herbicidal test; type: in vivo; conditions: Q, 4 WAT; also: ranges in brackets are in %
Procedure: (§1) The pre-emergent test was conducted as follows:
(§2) A good grade of top soil was placed in aluminum pans and compactd to a depth of 0.95 to 1.27 cm. from the top of the pan. On the top of the soil was placed a predetermined number of seeds or vegetative propagules of various plant species. The soil required to level fill the pans after seeding or adding vegetative propagules was weighed into a pan. A known amount of the herbicidal active ingredient applied in a solvent or as a wettable powder and the soil were thoroughly mixed, and used as a cover layer for prepared pans. After treatment the pans were moved into a greenhouse bench where they were watered from below as needed to give adequate moisture for germination and growth.
(§3) A herbicidal rating code was used to signify the extent of phytotoxicity of each species. The ratings are defined as follows: […]

Crabgrass [2] = assay: pre-emergent herbicidal test; type: in vivo; conditions: T, 4 WAT; also: ranges in brackets are in %
Procedure: as §1, §2, §3

Soybean [3] = assay: pre-emergent herbicidal test; type: in vivo; conditions: L, 4 WAT; also: ranges in brackets are in %
Procedure: as §1, §2, §3

Hemp Sesbania [4] = assay: pre-emergent herbicidal test; type: in vivo; conditions: R, 4 WAT; also: ranges in brackets are in %
Procedure: as §1, §2, §3

Panicum Spp [5] = assay: pre-emergent herbicidal test; type: in vivo; conditions: S, 4 WAT; also: ranges in brackets are in %
Procedure: as §1, §2, §3

Wheat [6] = assay: pre-emergent herbicidal test; type: in vivo; conditions: N, 4 WAT; also: ranges in brackets are in %
Procedure: as §1, §2, §3

Rice [7] = assay: pre-emergent herbicidal test; type: in vivo; conditions: O, 4 WAT; also: ranges in brackets are in %
Procedure: as §1, §2, §3

Sugar Beet [8] = assay: pre-emergent herbicidal test; type: in vivo; conditions: M, 4 WAT; also: ranges in brackets are in %
Procedure: as §1, §2, §3

Sorghum [9] = assay: pre-emergent herbicidal test; type: in vivo; conditions: P, 4 WAT; also: ranges in brackets are in %
Procedure: as §1, §2, §3

Wild Buckwheat [10] = assay: post-emergent herbicidal test; type: in vivo; conditions: Q; also: ranges in brackets are in %
Procedure: (§4) The post-emergent tests were conducted as follows:
(§5) The herbicidal active ingredients are applied in spray form to two or three-week old specimens of various plant species. The spray, a solution or wettable powder suspension containing the appropriate rate of herbicidal active ingredient to give the desired test rate and a surfactant, is applied to the plants. The treated plants are placed in a greenhouse and approximately two or four weeks later the effects are observed and recorded. The results are shown in Tables IX and X in which the post-emergent herbicidal rating code is as follows: […]

Crabgrass [11] = assay: post-emergent herbicidal test; type: in vivo; conditions: T; also: ranges in brackets are in %
Procedure: as §4, §5

Soybean [12] = assay: post-emergent herbicidal test; type: in vivo; conditions: L; also: ranges in brackets are in %
Procedure: as §4, §5

Hemp Sesbania [13] = assay: post-emergent herbicidal test; type: in vivo; conditions: R; also: ranges in brackets are in %
Procedure: as §4, §5

Panicum Spp [14] = assay: post-emergent herbicidal test; type: in vivo; conditions: S; also: ranges in brackets are in %
Procedure: as §4, §5

Wheat [15] = assay: post-emergent herbicidal test; type: in vivo; conditions: N; also: ranges in brackets are in %
Procedure: as §4, §5

Rice [16] = assay: post-emergent herbicidal test; type: in vivo; conditions: O; also: ranges in brackets are in %
Procedure: as §4, §5

Sugar Beet [17] = assay: post-emergent herbicidal test; type: in vivo; conditions: M; also: ranges in brackets are in %
Procedure: as §4, §5

Sorghum [18] = assay: post-emergent herbicidal test; type: in vivo; conditions: P; also: ranges in brackets are in %
Procedure: as §4, §5

COC(=N)CCCn1c(=O)sc2ccccc21 [Compound 18]
plant growth regulant observations (soybean plants; 0.112 kg/h): No response.
plant growth regulant observations (soybean plants; 0.56 kg/h): No response.

COC(=N)C(C)n1c(=O)sc2ccccc21 (stereo not shown) [Compound 32]
plant growth regulant observations (soybean plants; 0.112 kg/h): Inhibition of dry weight.

CCOC(=N)Cn1c(=O)sc2ccccc21 [Compound 12]
pre-emergent herbicidal rating (Wild Buckwheat [1]; 1.12 kg/h): 1 (25-49)
pre-emergent herbicidal rating (Wild Buckwheat [1]; 5.6 kg/h): 1 (25-49)
pre-emergent herbicidal rating (Crabgrass [2]; 1.12 kg/h): 0 (0-24)
pre-emergent herbicidal rating (Crabgrass [2]; 5.6 kg/h): 0 (0-24)
pre-emergent herbicidal rating (Soybean [3]; 1.12 kg/h): 1 (25-49)
pre-emergent herbicidal rating (Soybean [3]; 5.6 kg/h): 2 (50-74)
pre-emergent herbicidal rating (Hemp Sesbania [4]; 1.12 kg/h): 1 (25-49)
pre-emergent herbicidal rating (Hemp Sesbania [4]; 5.6 kg/h): 2 (50-74)
pre-emergent herbicidal rating (Panicum Spp [5]; 1.12 kg/h): 0 (0-24)
pre-emergent herbicidal rating (Panicum Spp [5]; 5.6 kg/h): 0 (0-24)
pre-emergent herbicidal rating (Wheat [6]; 1.12 kg/h): 0 (0-24)
pre-emergent herbicidal rating (Wheat [6]; 5.6 kg/h): 1 (25-49)
pre-emergent herbicidal rating (Rice [7]; 1.12 kg/h): 0 (0-24)
pre-emergent herbicidal rating (Rice [7]; 5.6 kg/h): 0 (0-24)
pre-emergent herbicidal rating (Sugar Beet [8]; 1.12 kg/h): 3 (75-100)
pre-emergent herbicidal rating (Sugar Beet [8]; 5.6 kg/h): 3 (75-100)
pre-emergent herbicidal rating (Sorghum [9]; 1.12 kg/h): 0 (0-24)
pre-emergent herbicidal rating (Sorghum [9]; 5.6 kg/h): 0 (0-24)
post-emergent herbicidal rating (Wild Buckwheat [10]; 0.28 kg/h, 4 WAT): 1 (25-49)
post-emergent herbicidal rating (Wild Buckwheat [10]; 1.12 kg/h, 4 WAT): 2 (50-74)
post-emergent herbicidal rating (Wild Buckwheat [10]; 5.6 kg/h, 4 WAT): 3 (75-99)
post-emergent herbicidal rating (Crabgrass [11]; 0.28 kg/h, 4 WAT): 0 (0-24)
post-emergent herbicidal rating (Crabgrass [11]; 1.12 kg/h, 4 WAT): 0 (0-24)
post-emergent herbicidal rating (Crabgrass [11]; 5.6 kg/h, 4 WAT): 0 (0-24)
post-emergent herbicidal rating (Soybean [12]; 0.28 kg/h, 4 WAT): 1 (25-49)
post-emergent herbicidal rating (Soybean [12]; 1.12 kg/h, 4 WAT): 1 (25-49)
post-emergent herbicidal rating (Soybean [12]; 5.6 kg/h, 4 WAT): 2 (50-74)
post-emergent herbicidal rating (Hemp Sesbania [13]; 0.28 kg/h, 4 WAT): 1 (25-49)
post-emergent herbicidal rating (Hemp Sesbania [13]; 1.12 kg/h, 4 WAT): 2 (50-74)
post-emergent herbicidal rating (Hemp Sesbania [13]; 5.6 kg/h, 4 WAT): 3 (75-99)
post-emergent herbicidal rating (Panicum Spp [14]; 0.28 kg/h, 4 WAT): 0 (0-24)
post-emergent herbicidal rating (Panicum Spp [14]; 1.12 kg/h, 4 WAT): 0 (0-24)
post-emergent herbicidal rating (Panicum Spp [14]; 5.6 kg/h, 4 WAT): 0 (0-24)
post-emergent herbicidal rating (Wheat [15]; 0.28 kg/h, 4 WAT): 0 (0-24)
post-emergent herbicidal rating (Wheat [15]; 1.12 kg/h, 4 WAT): 0 (0-24)
post-emergent herbicidal rating (Wheat [15]; 5.6 kg/h, 4 WAT): 1 (25-49)
post-emergent herbicidal rating (Rice [16]; 0.28 kg/h, 4 WAT): 0 (0-24)
post-emergent herbicidal rating (Rice [16]; 1.12 kg/h, 4 WAT): 0 (0-24)
post-emergent herbicidal rating (Rice [16]; 5.6 kg/h, 4 WAT): 0 (0-24)
post-emergent herbicidal rating (Sugar Beet [17]; 0.28 kg/h, 4 WAT): 1 (25-49)
post-emergent herbicidal rating (Sugar Beet [17]; 1.12 kg/h, 4 WAT): 2 (50-74)
post-emergent herbicidal rating (Sugar Beet [17]; 5.6 kg/h, 4 WAT): 3 (75-99)
post-emergent herbicidal rating (Sorghum [18]; 0.28 kg/h, 4 WAT): 0 (0-24)
post-emergent herbicidal rating (Sorghum [18]; 1.12 kg/h, 4 WAT): 0 (0-24)
post-emergent herbicidal rating (Sorghum [18]; 5.6 kg/h, 4 WAT): 0 (0-24)

COC(=N)Cn1c(=O)oc2ccccc21 [Compound 22]
plant growth regulant observations (soybean plants; 0.56 kg/h): Leaf alteration of new growth.

COC(=N)Cn1c(=O)sc2ccccc21 [Compound 24]
pre-emergent herbicidal rating (Wild Buckwheat [1]; 1.12 kg/h): 1 (25-49)
pre-emergent herbicidal rating (Wild Buckwheat [1]; 5.6 kg/h): 3 (75-100)
pre-emergent herbicidal rating (Crabgrass [2]; 1.12 kg/h): 0 (0-24)
pre-emergent herbicidal rating (Crabgrass [2]; 5.6 kg/h): 1 (25-49)
pre-emergent herbicidal rating (Soybean [3]; 1.12 kg/h): 2 (50-74)
pre-emergent herbicidal rating (Soybean [3]; 5.6 kg/h): 3 (75-100)
pre-emergent herbicidal rating (Hemp Sesbania [4]; 1.12 kg/h): 1 (25-49)
pre-emergent herbicidal rating (Hemp Sesbania [4]; 5.6 kg/h): 3 (75-100)
pre-emergent herbicidal rating (Panicum Spp [5]; 1.12 kg/h): 0 (0-24)
pre-emergent herbicidal rating (Panicum Spp [5]; 5.6 kg/h): 0 (0-24)
pre-emergent herbicidal rating (Wheat [6]; 1.12 kg/h): 1 (25-49)
pre-emergent herbicidal rating (Wheat [6]; 5.6 kg/h): 1 (25-49)
pre-emergent herbicidal rating (Rice [7]; 1.12 kg/h): 0 (0-24)
pre-emergent herbicidal rating (Rice [7]; 5.6 kg/h): 1 (25-49)
pre-emergent herbicidal rating (Sugar Beet [8]; 1.12 kg/h): 1 (25-49)
pre-emergent herbicidal rating (Sugar Beet [8]; 5.6 kg/h): 3 (75-100)
pre-emergent herbicidal rating (Sorghum [9]; 1.12 kg/h): 0 (0-24)
pre-emergent herbicidal rating (Sorghum [9]; 5.6 kg/h): 0 (0-24)
post-emergent herbicidal rating (Wild Buckwheat [10]; 0.056 kg/h, 2 WAT): 1 (25-49)
post-emergent herbicidal rating (Wild Buckwheat [10]; 0.28 kg/h, 4 WAT): 1 (25-49)
post-emergent herbicidal rating (Wild Buckwheat [10]; 1.12 kg/h, 4 WAT): 4 (100)
post-emergent herbicidal rating (Wild Buckwheat [10]; 5.6 kg/h, 4 WAT): 4 (100)
post-emergent herbicidal rating (Crabgrass [11]; 0.056 kg/h, 2 WAT): 0 (0-24)
post-emergent herbicidal rating (Crabgrass [11]; 0.28 kg/h, 4 WAT): 0 (0-24)
post-emergent herbicidal rating (Crabgrass [11]; 1.12 kg/h, 4 WAT): 0 (0-24)
post-emergent herbicidal rating (Crabgrass [11]; 5.6 kg/h, 4 WAT): 0 (0-24)
post-emergent herbicidal rating (Soybean [12]; 0.056 kg/h, 2 WAT): 1 (25-49)
post-emergent herbicidal rating (Soybean [12]; 0.28 kg/h, 4 WAT): 1 (25-49)
post-emergent herbicidal rating (Soybean [12]; 1.12 kg/h, 4 WAT): 2 (50-74)
post-emergent herbicidal rating (Soybean [12]; 5.6 kg/h, 4 WAT): 2 (50-74)
post-emergent herbicidal rating (Hemp Sesbania [13]; 0.056 kg/h, 2 WAT): 0 (0-24)
post-emergent herbicidal rating (Hemp Sesbania [13]; 0.28 kg/h, 4 WAT): 1 (25-49)
post-emergent herbicidal rating (Hemp Sesbania [13]; 1.12 kg/h, 4 WAT): 2 (50-74)
post-emergent herbicidal rating (Hemp Sesbania [13]; 5.6 kg/h, 4 WAT): 4 (100)
post-emergent herbicidal rating (Panicum Spp [14]; 0.056 kg/h, 2 WAT): 0 (0-24)
post-emergent herbicidal rating (Panicum Spp [14]; 0.28 kg/h, 4 WAT): 0 (0-24)
post-emergent herbicidal rating (Panicum Spp [14]; 1.12 kg/h, 4 WAT): 0 (0-24)
post-emergent herbicidal rating (Panicum Spp [14]; 5.6 kg/h, 4 WAT): 0 (0-24)
post-emergent herbicidal rating (Wheat [15]; 0.056 kg/h, 2 WAT): 0 (0-24)
post-emergent herbicidal rating (Wheat [15]; 0.28 kg/h, 4 WAT): 0 (0-24)
post-emergent herbicidal rating (Wheat [15]; 1.12 kg/h, 4 WAT): 0 (0-24)
post-emergent herbicidal rating (Wheat [15]; 5.6 kg/h, 4 WAT): 1 (25-49)
post-emergent herbicidal rating (Rice [16]; 0.056 kg/h, 2 WAT): 0 (0-24)
post-emergent herbicidal rating (Rice [16]; 0.28 kg/h, 4 WAT): 0 (0-24)
post-emergent herbicidal rating (Rice [16]; 1.12 kg/h, 4 WAT): 1 (25-49)
post-emergent herbicidal rating (Rice [16]; 5.6 kg/h, 4 WAT): 0 (0-24)
post-emergent herbicidal rating (Sugar Beet [17]; 0.056 kg/h, 2 WAT): 1 (25-49)
post-emergent herbicidal rating (Sugar Beet [17]; 0.28 kg/h, 4 WAT): 1 (25-49)
post-emergent herbicidal rating (Sugar Beet [17]; 1.12 kg/h, 4 WAT): 2 (50-74)
post-emergent herbicidal rating (Sugar Beet [17]; 5.6 kg/h, 4 WAT): 3 (75-99)
post-emergent herbicidal rating (Sorghum [18]; 0.056 kg/h, 2 WAT): 0 (0-24)
post-emergent herbicidal rating (Sorghum [18]; 0.28 kg/h, 4 WAT): 0 (0-24)
post-emergent herbicidal rating (Sorghum [18]; 1.12 kg/h, 4 WAT): 1 (25-49)
post-emergent herbicidal rating (Sorghum [18]; 5.6 kg/h, 4 WAT): 1 (25-49)
